This is an account of results in patent US8901118B2, “Compounds and methods for kinase modulation, and indications therefor” (Plexxikon Inc., priority 2010, dated 2014).

Each structure is given as a SMILES string.

In one experiment the target is TrkA kinase (Homo sapiens, UniProt P04629). In words: TrkA kinase biochemical activity assay (AlphaScreen). The conditions noted are these: 100 μM ATP; read-out: Biochemical Inhibition IC50 TrkA. In short, it runs like this: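 IC50 values come from AlphaScreen PY20/streptavidin bead signal versus compound concentration. Kinase reaction: 1 ng/well TrkA, 100 μM ATP, 30 nM biotin-(E4Y)10 substrate, Mn2+-containing Hepes buffer pH 7.5, 5% DMSO, 40 min, room temperature; TrkC assayed by the same approach.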
Chain of TrkA kinase (P04629 33-796): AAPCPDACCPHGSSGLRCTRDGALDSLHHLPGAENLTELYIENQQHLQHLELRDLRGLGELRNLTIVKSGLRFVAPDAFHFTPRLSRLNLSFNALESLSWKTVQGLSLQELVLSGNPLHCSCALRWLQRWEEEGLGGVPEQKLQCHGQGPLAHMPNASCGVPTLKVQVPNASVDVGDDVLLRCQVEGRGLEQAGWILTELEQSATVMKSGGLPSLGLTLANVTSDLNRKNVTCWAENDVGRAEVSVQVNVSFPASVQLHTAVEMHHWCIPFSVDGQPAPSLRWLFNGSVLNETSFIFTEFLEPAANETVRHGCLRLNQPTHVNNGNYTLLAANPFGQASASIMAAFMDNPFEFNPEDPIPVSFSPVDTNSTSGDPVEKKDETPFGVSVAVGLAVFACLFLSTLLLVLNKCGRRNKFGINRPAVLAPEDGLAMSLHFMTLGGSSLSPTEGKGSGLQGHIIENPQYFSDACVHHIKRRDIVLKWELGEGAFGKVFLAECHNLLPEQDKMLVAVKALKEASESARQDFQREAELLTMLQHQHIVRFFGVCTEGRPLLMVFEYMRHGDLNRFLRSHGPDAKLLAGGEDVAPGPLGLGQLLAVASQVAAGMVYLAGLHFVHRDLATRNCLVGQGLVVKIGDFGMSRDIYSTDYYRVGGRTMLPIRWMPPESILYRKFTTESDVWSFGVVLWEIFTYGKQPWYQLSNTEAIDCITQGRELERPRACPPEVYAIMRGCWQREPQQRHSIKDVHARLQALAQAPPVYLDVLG

The target in a further experiment is CYP2D6 (Homo sapiens, UniProt P10635). The experiment can be described thus: CYP2D6 inhibition (fluorescent substrate AMMC). The conditions noted are these: read-out: Cyp IC50 2D6. It is filed as in vitro ADME. Put shortly: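 IC50 derives from metabolite fluorescence against compound concentration, read at excitation 409 nm and emission 460 nm for CYP1A2/2C19 or 530 nm for CYP2C9/2D6. Incubations ran at 37° C for 15 min (1A2), 45 min (2C9) or 30 min (2C19, 2D6), after serial dilution into NADPH cofactor mix and 10 min preincubation.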
Chain of CYP2D6 (P10635 whole entry): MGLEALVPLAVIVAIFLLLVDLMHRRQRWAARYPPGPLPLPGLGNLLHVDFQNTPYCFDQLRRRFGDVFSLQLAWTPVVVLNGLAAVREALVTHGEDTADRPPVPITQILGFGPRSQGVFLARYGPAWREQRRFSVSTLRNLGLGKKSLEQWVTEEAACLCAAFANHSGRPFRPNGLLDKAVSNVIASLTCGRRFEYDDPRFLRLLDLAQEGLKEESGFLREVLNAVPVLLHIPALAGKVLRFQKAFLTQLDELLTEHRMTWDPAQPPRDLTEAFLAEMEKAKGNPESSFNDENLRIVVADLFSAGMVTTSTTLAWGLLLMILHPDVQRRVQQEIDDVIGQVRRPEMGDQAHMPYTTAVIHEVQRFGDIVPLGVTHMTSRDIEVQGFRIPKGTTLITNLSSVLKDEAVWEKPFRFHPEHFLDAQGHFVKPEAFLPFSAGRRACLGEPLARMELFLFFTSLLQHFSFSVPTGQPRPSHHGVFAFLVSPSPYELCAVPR

Another experiment concerns the target Fms kinase (Homo sapiens, UniProt P07333). The experiment can be described thus: Fms kinase biochemical activity assay (AlphaScreen, biotin-(E4Y)10 phosphorylation). The conditions noted are these: 100 μM ATP; read-out: Biochemical Inhibition IC50 Fms. In short, it runs like this:
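AlphaScreen read-out (PY20 acceptor, streptavidin donor beads, EDTA stop) of biotin-(E4Y)10 phosphorylation, with IC50 taken from the concentration–signal curve. Reaction: 30 nM substrate, 100 μM ATP, 1 ng/well Fms, Hepes pH 7.5 with Mg2+/Mn2+, 5% DMSO, 20 min at 30 °C.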
(Bead proximity is the source of the signal in Alpha formats.)

Chain of Fms kinase (P07333 20-972): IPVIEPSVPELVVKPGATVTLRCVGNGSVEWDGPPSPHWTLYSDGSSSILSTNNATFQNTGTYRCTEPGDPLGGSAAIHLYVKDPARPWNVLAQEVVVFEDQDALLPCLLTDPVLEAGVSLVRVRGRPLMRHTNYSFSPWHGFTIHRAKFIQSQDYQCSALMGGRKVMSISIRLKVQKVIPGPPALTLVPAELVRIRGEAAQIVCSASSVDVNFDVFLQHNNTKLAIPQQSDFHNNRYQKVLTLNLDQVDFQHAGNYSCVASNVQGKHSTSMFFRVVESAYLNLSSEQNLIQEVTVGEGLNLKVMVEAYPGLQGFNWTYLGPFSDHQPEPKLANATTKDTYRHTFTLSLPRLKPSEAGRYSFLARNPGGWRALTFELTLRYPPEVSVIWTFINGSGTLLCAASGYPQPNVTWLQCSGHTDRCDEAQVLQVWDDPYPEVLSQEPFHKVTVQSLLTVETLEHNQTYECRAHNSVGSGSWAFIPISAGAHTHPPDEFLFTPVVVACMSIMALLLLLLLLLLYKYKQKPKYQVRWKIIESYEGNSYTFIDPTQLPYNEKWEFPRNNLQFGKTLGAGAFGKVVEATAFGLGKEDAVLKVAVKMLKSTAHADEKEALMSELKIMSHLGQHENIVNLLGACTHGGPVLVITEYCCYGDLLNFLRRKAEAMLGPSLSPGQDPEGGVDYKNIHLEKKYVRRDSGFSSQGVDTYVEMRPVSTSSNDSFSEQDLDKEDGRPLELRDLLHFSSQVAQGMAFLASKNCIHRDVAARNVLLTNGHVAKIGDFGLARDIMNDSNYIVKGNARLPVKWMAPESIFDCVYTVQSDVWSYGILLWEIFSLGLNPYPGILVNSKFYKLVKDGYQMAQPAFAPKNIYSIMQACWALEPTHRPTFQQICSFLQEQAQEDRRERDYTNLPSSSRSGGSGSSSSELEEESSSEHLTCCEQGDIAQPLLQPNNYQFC

Turning to `CCc1ccc(Nc2ccc(C(=O)c3c[nH]c4ncnc(NC5CCC(F)(F)CC5)c34)c(F)n2)cn1` [Compound P-4096, [4-[(4,4-difluorocyclohexyl)amino]-7H-pyrrolo[2,3-d]pyrimidin-5-yl]-[6-[(6-ethyl-3-pyridyl)amino]-2-fluoro-3-pyridyl]methanone], the IC50 was below 100 nM on TrkA kinase, below 5000 nM at CYP2D6 and below 100 nM on Fms kinase.

In the case of `CCc1ccc(Nc2ccc(C(=O)c3c[nH]c4ncnc(N[C@@H](C)c5ccc(F)cc5)c34)c(F)n2)cn1` [Compound P-4097, [6-[(6-ethyl-3-pyridyl)amino]-2-fluoro-3-pyridyl]-[4-[[(1S)-1-(4-fluorophenyl)ethyl]amino]-7H-pyrrolo[2,3-d]pyrimidin-5-yl]methanone], the IC50 is below 100 nM on TrkA kinase, below 5000 nM at CYP2D6 and below 1000 nM at Fms kinase.

Take `CCc1ccc(Nc2ccc(C(=O)c3c[nH]c4ncnc(NCCCOC)c34)c(F)n2)cn1` [Compound P-4098, [6-[(6-ethyl-3-pyridyl)amino]-2-fluoro-3-pyridyl]-[4-(3-methoxypropylamino)-7H-pyrrolo[2,3-d]pyrimidin-5-yl]methanone]: the IC50 was below 10 nM on TrkA kinase, below 5000 nM on CYP2D6 and below 10 nM at Fms kinase.

Turning to `CCc1ccc(Nc2ccc(C(=O)c3c[nH]c4ncnc(NC5CCCC5)c34)c(F)n2)cn1` [Compound P-4099, [4-(cyclopentylamino)-7H-pyrrolo[2,3-d]pyrimidin-5-yl]-[6-[(6-ethyl-3-pyridyl)amino]-2-fluoro-3-pyridyl]methanone], the IC50 at TrkA kinase was below 100 nM; at CYP2D6, below 5000 nM; on Fms kinase it was below 100 nM.

Regarding `CCCCNc1ncnc2[nH]cc(C(=O)c3ccc(Nc4ccc(CC)nc4)nc3F)c12` [Compound P-4100, [4-(butylamino)-7H-pyrrolo[2,3-d]pyrimidin-5-yl]-[6-[(6-ethyl-3-pyridyl)amino]-2-fluoro-3-pyridyl]methanone], the IC50 on TrkA kinase is below 100 nM; on CYP2D6 it was below 5000 nM; on Fms kinase, below 100 nM.

For `CC(C)Nc1ncnc2[nH]cc(C(=O)c3ccc(NC4CCCCC4)nc3F)c12` [Compound P-4101, [6-(cyclohexylamino)-2-fluoro-3-pyridyl]-[4-(isopropylamino)-7H-pyrrolo[2,3-d]pyrimidin-5-yl]methanone], the IC50 was below 100 nM on TrkA kinase, above 10000 nM at CYP2D6 and below 100 nM at Fms kinase.

Regarding `CNc1ncnc2[nH]cc(C(=O)c3ccc(NC4CCCCC4)nc3F)c12` [Compound P-4102, [6-(cyclohexylamino)-2-fluoro-3-pyridyl]-[4-(methylamino)-7H-pyrrolo[2,3-d]pyrimidin-5-yl]methanone], the IC50 is below 100 nM on TrkA kinase, below 5000 nM at CYP2D6 and below 100 nM on Fms kinase.

On to `COc1cncc(Nc2ccc(C(=O)c3c[nH]c4ncnc(NCC(F)(F)F)c34)c(F)n2)c1` [Compound P-4103, [2-fluoro-6-[(5-methoxy-3-pyridyl)amino]-3-pyridyl]-[4-(2,2,2-trifluoroethylamino)-7H-pyrrolo[2,3-d]pyrimidin-5-yl]methanone], for which the figures for the IC50 on TrkA kinase, on CYP2D6 and at Fms kinase were below 100 nM, above 10000 nM and below 1000 nM, respectively.

As to `COc1cncc(Nc2ccc(C(=O)c3c[nH]c4ncnc(NC5CCCCC5)c34)c(F)n2)c1` [Compound P-4104, [4-(cyclohexylamino)-7H-pyrrolo[2,3-d]pyrimidin-5-yl]-[2-fluoro-6-[(5-methoxy-3-pyridyl)amino]-3-pyridyl]methanone], the values for the IC50 on TrkA kinase, on CYP2D6 and on Fms kinase were below 100 nM, above 10000 nM and below 1000 nM, respectively.

Regarding `CCCNc1ncnc2[nH]cc(C(=O)c3ccc(Nc4cncc(OC)c4)nc3F)c12` [Compound P-4105, [2-fluoro-6-[(5-methoxy-3-pyridyl)amino]-3-pyridyl]-[4-(propylamino)-7H-pyrrolo[2,3-d]pyrimidin-5-yl]methanone], the IC50 at TrkA kinase was below 100 nM; on CYP2D6, above 10000 nM; on Fms kinase it was below 100 nM.

As for `COc1cncc(Nc2ccc(C(=O)c3c[nH]c4ncnc(NC(C)C)c34)c(F)n2)c1` [Compound P-4106, [2-fluoro-6-[(5-methoxy-3-pyridyl)amino]-3-pyridyl]-[4-(isopropylamino)-7H-pyrrolo[2,3-d]pyrimidin-5-yl]methanone], the IC50 on TrkA kinase is below 10 nM; at CYP2D6, below 5000 nM; at Fms kinase it was below 100 nM.

As for `COc1cncc(Nc2ccc(C(=O)c3c[nH]c4ncnc(NC5CC5)c34)c(F)n2)c1` [Compound P-4107, [4-(cyclopropylamino)-7H-pyrrolo[2,3-d]pyrimidin-5-yl]-[2-fluoro-6-[(5-methoxy-3-pyridyl)amino]-3-pyridyl]methanone], the figures for the IC50 at TrkA kinase, on CYP2D6 and on Fms kinase were below 10 nM, below 5000 nM and below 100 nM, respectively.

Take `CNc1ncnc2[nH]cc(C(=O)c3ccc(Nc4cncc(OC)c4)nc3F)c12` [Compound P-4108, [2-fluoro-6-[(5-methoxy-3-pyridyl)amino]-3-pyridyl]-[4-(methylamino)-7H-pyrrolo[2,3-d]pyrimidin-5-yl]methanone]: the figures for the IC50 on TrkA kinase, on CYP2D6 and at Fms kinase were below 100 nM, below 5000 nM and below 100 nM, respectively.

`CC(C)Nc1ncnc2[nH]cc(C(=O)c3ccc(NC4CCCCC4)nc3Cl)c12` [Compound P-4109, [2-chloro-6-(cyclohexylamino)-3-pyridyl]-[4-(isopropylamino)-7H-pyrrolo[2,3-d]pyrimidin-5-yl]methanone]: the IC50 was below 100 nM at TrkA kinase, above 10000 nM at CYP2D6 and below 100 nM at Fms kinase.

Turning to `CNc1ncnc2[nH]cc(C(=O)c3ccc(NC4CCCCC4)nc3Cl)c12` [Compound P-4110, [2-chloro-6-(cyclohexylamino)-3-pyridyl]-[4-(methylamino)-7H-pyrrolo[2,3-d]pyrimidin-5-yl]methanone], the IC50 at TrkA kinase is below 1000 nM; on CYP2D6 it was below 5000 nM; at Fms kinase it was below 100 nM.

In the case of `Cc1ccc(Nc2ccc(C(=O)c3c[nH]c4ncnc(NC5CCCCC5)c34)c(F)n2)cn1` [Compound P-4111, [4-(cyclohexylamino)-7H-pyrrolo[2,3-d]pyrimidin-5-yl]-[2-fluoro-6-[(6-methyl-3-pyridyl)amino]-3-pyridyl]methanone], the results for the IC50 at TrkA kinase, on CYP2D6 and on Fms kinase were below 100 nM, above 10000 nM and below 100 nM, respectively.

On to `Cc1ccc(Nc2ccc(C(=O)c3c[nH]c4ncnc(NCC(F)(F)F)c34)c(F)n2)cn1` [Compound P-4112, [2-fluoro-6-[(6-methyl-3-pyridyl)amino]-3-pyridyl]-[4-(2,2,2-trifluoroethylamino)-7H-pyrrolo[2,3-d]pyrimidin-5-yl]methanone], for which the results for the IC50 on TrkA kinase, at CYP2D6 and at Fms kinase were below 100 nM, below 5000 nM and below 100 nM, respectively.

`Cc1ccc(Nc2ccc(C(=O)c3c[nH]c4ncnc(NCC5CC5)c34)c(F)n2)cn1` [Compound P-4113, [4-(cyclopropylmethylamino)-7H-pyrrolo[2,3-d]pyrimidin-5-yl]-[2-fluoro-6-[(6-methyl-3-pyridyl)amino]-3-pyridyl]methanone]: the IC50 on TrkA kinase was below 10 nM; on CYP2D6, above 10000 nM; at Fms kinase, below 10 nM.

Regarding `CCCNc1ncnc2[nH]cc(C(=O)c3ccc(Nc4ccc(C)nc4)nc3F)c12` [Compound P-4114, [2-fluoro-6-[(6-methyl-3-pyridyl)amino]-3-pyridyl]-[4-(propylamino)-7H-pyrrolo[2,3-d]pyrimidin-5-yl]methanone], the IC50 was below 10 nM at TrkA kinase, above 10000 nM on CYP2D6 and below 10 nM at Fms kinase.

With `CNc1ncnc2[nH]cc(C(=O)c3ccc(Nc4ccc(C)nc4)nc3F)c12` [Compound P-4115, [2-fluoro-6-[(6-methyl-3-pyridyl)amino]-3-pyridyl]-[4-(methylamino)-7H-pyrrolo[2,3-d]pyrimidin-5-yl]methanone], the values for the IC50 on TrkA kinase, on CYP2D6 and at Fms kinase were below 10 nM, below 5000 nM and below 10 nM, respectively.

With `CCc1ccc(Nc2ccc(C(=O)c3c[nH]c4ncnc(NC5CCOCC5)c34)c(F)n2)cn1` [Compound P-4116, [6-[(6-ethyl-3-pyridyl)amino]-2-fluoro-3-pyridyl]-[4-(tetrahydropyran-4-ylamino)-7H-pyrrolo[2,3-d]pyrimidin-5-yl]methanone], the IC50 was below 10 nM on TrkA kinase, above 10000 nM on CYP2D6 and below 100 nM at Fms kinase.

For `CCc1ccc(Nc2ccc(C(=O)c3c[nH]c4ncnc(NC(C)C)c34)c(F)n2)cn1` [Compound P-4117, [6-[(6-ethyl-3-pyridyl)amino]-2-fluoro-3-pyridyl]-[4-(isopropylamino)-7H-pyrrolo[2,3-d]pyrimidin-5-yl]methanone], the IC50 on TrkA kinase is below 10 nM; at CYP2D6, above 10000 nM; at Fms kinase, below 10 nM.

For `CCc1ccc(Nc2ccc(C(=O)c3c[nH]c4ncnc(NCC5CC5)c34)c(F)n2)cn1` [Compound P-4118, [4-(cyclopropylmethylamino)-7H-pyrrolo[2,3-d]pyrimidin-5-yl]-[6-[(6-ethyl-3-pyridyl)amino]-2-fluoro-3-pyridyl]methanone], the results for the IC50 at TrkA kinase, on CYP2D6 and on Fms kinase were below 10 nM, above 10000 nM and below 100 nM, respectively.

Usually IC50 stands for the point on the concentration scale where inhibition reaches its midpoint.
